Results taken from patent publication US20240050421A1, “PHARMACEUTICAL FORMULATIONS OF A PHENOLIC TRPV1 AGONIST PRODRUG” (Concentric Analgesics, Inc., priority 2020, published 2024).

Experiment: Water solubility / hydrophilicity compared with capsaicin
Assay type: physicochemical
Conditions: general statement, no method or figures given

CNCC1CCCCN1C(=O)Oc1ccc(CNC(=O)CCCC/C=C/C(C)C)cc1OC.Cl (stereo not shown) [Compound 1, (E)-2-methoxy-4-((8-methylnon-6-enamido)methyl)phenyl 2-((methylamino)methyl)piperidine-1-carboxylate]
hydrophilicity/water solubility: significantly higher hydrophilicity/water solubility than capsaicin
